Test results reported in patent publication US20030207813A1, “Retroviral protease inhibitor combinations” (priority 1995, published 2003).

How the values were obtained:
NL4(538/P7-AG) = experiment: Viral isolate resistance assay per Markowitz et al., NL4(538/P7-AG); format: cell-based, HIV-1; details: Human immunodeficiency virus 1; Table 10; NL4(P22-538) selected against Example 12, 7 passages
Description: (§1) RF represents the HIV-1 strain HIV-LRF and RFR represents a mixture of resistant strains obtained by selection of RF against the compound of Example 1. RFR comprises a mixture of viral strains having protease genotypes of G48V (14/40 clones); G48V, V82A (18/40 clones); G48V, L90S (2/40 clones); G48V, 154T, V82A (1/40 clones); G48M (1/40 clones); G48V, Q61H (1/40 clones); V13I, G48V (1/40 clones); G48V, F53L, V82A (1/40 clones); and G48V, V82A, C95Y (1/40 clones). RFR2 represents a mixture of resistant strains obtained by cloning RFR by three rounds of growth at limiting dilution. RFR2 comprises a mixture of viral strains having protease genotypes of G48V, V82A (13/15 clones); G17E, G48V, V82A (1/15 clones); and G48V, V82A, N37D, N88D (1/15 clones). RFRR represents a mixture of resistant strains obtained by selection of RF against the compounds of Examples 1 and 2 and then cloning by three rounds of growth at limiting dilution. RFRR comprises a mixture of viral strains having protease genotypes of G48V, 154T, L63P, V82A (7/9 clones); G48V, 154T, L63P, V82A, N88S (1/9 clones); and G48V, 154T, L63P, G73M, V82A (1/9 clones). SF162 represents the HIV-1 strain SF-162 and SF162R represents a mixture of resistant strains obtained by selection of SF162 against the compound of Example 1. SF162R comprises a mixture of viral strains having protease genotypes of M461, F53L, L63P, A71V, N88D (2/3 clones); and M46I, F53L, L63P, A71V, N88D, Q92R (1/3 clones). 89-959 represents the HIV-1 strain 89-959 and 89-959R represents a mixture of resistant strains obtained by selection of 89-959 against the compound of Example 2. 89-959R comprises a mixture of viral strains having protease genotypes of N88S (4/5 clones); and D25N, T26A, D30N, D37N, R41K, G73D, R87K, N88S (1/4 clones). NL4 represents the HIV-1 strain HIV-1NL4-3. NL4(G48V) represents a strain having a synthetically generated site-directed mutation in the protease from glycine to valine at amino acid position number 48. NL4(I84V) represents a strain having a synthetically generated site-directed mutation in the protease from isoleucine to valine at amino acid position number 84. NL4(R8Q,M46I) represents a strain having synthetically generated site-directed mutations in the protease from arginine to glutamine at amino acid position number 8 and methionine to isoleucine at amino acid position number 46. NL4(P22-538) represents a mixture of resistant strains obtained by selection of HIV-1NL4-3 against the compound of Example 10 after 22 passages comprising protease genotypes M46I, L63P, A71V, V82F, I84V (4/10); M46I, L63P, V82F, I84V (3/10); and M46I, A71V, V82F, I84V (3/10). NL4(P37-538) represents resistant strains obtained by selection of HIV-1NL4-3 against the compound of Example 10 after 37 passages comprising protease genotype M46I, L63P, A71V, 184A. NL4(538/524) represents resistant strains obtained by selection of NL4(P22-538) against the compound of Example 5 after 24 passages comprising protease genotype M46I, L63P, A71V, 184A. NL4(538/P7-AG) represents a mixture of resistant strains obtained by selection of NL4(P22-538) against the compound of Example 12 after 7 passages comprising protease genotypes M46I, L63P, A71V, 184A; and V321, V82I. NL4(538/P24-AG) represents resistant strains obtained by selection of NL4(P22-538) against the compound of Example 12 after 24 passages comprising protease genotype M46I, L63P, A71V, 184A. […]

NL4(G48V) = experiment: Viral isolate resistance assay per Markowitz et al., NL4(G48V); format: cell-based, HIV-1; details: Human immunodeficiency virus 1, Table 7
Description: (§2) RF represents the HIV-1 strain HIV-LRF and RFR represents a mixture of resistant strains obtained by selection of RF against the compound of Example 1. […] RFR2 represents a mixture of resistant strains obtained by cloning RFR by three rounds of growth at limiting dilution. […] RFRR represents a mixture of resistant strains obtained by selection of RF against the compounds of Examples 1 and 2 and then cloning by three rounds of growth at limiting dilution. […] SF162 represents the HIV-1 strain SF-162 and SF162R represents a mixture of resistant strains obtained by selection of SF162 against the compound of Example 1. […] 89-959 represents the HIV-1 strain 89-959 and 89-959R represents a mixture of resistant strains obtained by selection of 89-959 against the compound of Example 2. […] NL4 represents the HIV-1 strain HIV-1NL4-3. NL4(G48V) represents a strain having a synthetically generated site-directed mutation in the protease from glycine to valine at amino acid position number 48. NL4(I84V) represents a strain having a synthetically generated site-directed mutation in the protease from isoleucine to valine at amino acid position number 84. NL4(R8Q,M46I) represents a strain having synthetically generated site-directed mutations in the protease from arginine to glutamine at amino acid position number 8 and methionine to isoleucine at amino acid position number 46.

NL4(P34-003) = experiment: Viral isolate resistance assay per Markowitz et al., NL4(P34-003); format: cell-based, HIV-1; details: Human immunodeficiency virus 1; Table 11; selected against Example 9, 34 passages
Description: (§3) RF represents the HIV-1 strain HIV-LRF and RFR represents a mixture of resistant strains obtained by selection of RF against the compound of Example 1. RFR comprises a mixture of viral strains having protease genotypes of G48V (14/40 clones); G48V, V82A (18/40 clones); G48V, L90S (2/40 clones); G48V, 154T, V82A (1/40 clones); G48M (1/40 clones); G48V, Q61H (1/40 clones); V13I, G48V (1/40 clones); G48V, F53L, V82A (1/40 clones); and G48V, V82A, C95Y (1/40 clones). RFR2 represents a mixture of resistant strains obtained by cloning RFR by three rounds of growth at limiting dilution. RFR2 comprises a mixture of viral strains having protease genotypes of G48V, V82A (13/15 clones); G17E, G48V, V82A (1/15 clones); and G48V, V82A, N37D, N88D (1/15 clones). RFRR represents a mixture of resistant strains obtained by selection of RF against the compounds of Examples 1 and 2 and then cloning by three rounds of growth at limiting dilution. RFRR comprises a mixture of viral strains having protease genotypes of G48V, 154T, L63P, V82A (7/9 clones); G48V, 154T, L63P, V82A, N88S (1/9 clones); and G48V, 154T, L63P, G73M, V82A (1/9 clones). SF162 represents the HIV-1 strain SF-162 and SF162R represents a mixture of resistant strains obtained by selection of SF162 against the compound of Example 1. SF162R comprises a mixture of viral strains having protease genotypes of M461, F53L, L63P, A71V, N88D (2/3 clones); and M46I, F53L, L63P, A71V, N88D, Q92R (1/3 clones). 89-959 represents the HIV-1 strain 89-959 and 89-959R represents a mixture of resistant strains obtained by selection of 89-959 against the compound of Example 2. 89-959R comprises a mixture of viral strains having protease genotypes of N88S (4/5 clones); and D25N, T26A, D30N, D37N, R41K, G73D, R87K, N88S (1/4 clones). NL4 represents the HIV-1 strain HIV-1NL4-3. NL4(G48V) represents a strain having a synthetically generated site-directed mutation in the protease from glycine to valine at amino acid position number 48. […]

NLA(P19-003) = experiment: Viral isolate resistance assay per Markowitz et al., NLA(P19-003); format: cell-based, HIV-1; details: Human immunodeficiency virus 1, read-out: Virus Isolate (EC50 nM) NLA(P19-003)
Description: as §3

NL4(P37-538) = experiment: Viral isolate resistance assay per Markowitz et al., NL4(P37-538); format: cell-based, HIV-1; details: Human immunodeficiency virus 1; Table 9; selected against Example 10, 37 passages; read-out: Virus Isolate (EC50 nM) NL4(P37-538)
Description: RF represents the HIV-1 strain HIV-LRF and RFR represents a mixture of resistant strains obtained by selection of RF against the compound of Example 1. RFR comprises a mixture of viral strains having protease genotypes of G48V (14/40 clones); G48V, V82A (18/40 clones); G48V, L90S (2/40 clones); G48V, 154T, V82A (1/40 clones); G48M (1/40 clones); G48V, Q61H (1/40 clones); V13I, G48V (1/40 clones); G48V, F53L, V82A (1/40 clones); and G48V, V82A, C95Y (1/40 clones). RFR2 represents a mixture of resistant strains obtained by cloning RFR by three rounds of growth at limiting dilution. RFR2 comprises a mixture of viral strains having protease genotypes of G48V, V82A (13/15 clones); G17E, G48V, V82A (1/15 clones); and G48V, V82A, N37D, N88D (1/15 clones). RFRR represents a mixture of resistant strains obtained by selection of RF against the compounds of Examples 1 and 2 and then cloning by three rounds of growth at limiting dilution. RFRR comprises a mixture of viral strains having protease genotypes of G48V, 154T, L63P, V82A (7/9 clones); G48V, 154T, L63P, V82A, N88S (1/9 clones); and G48V, 154T, L63P, G73M, V82A (1/9 clones). SF162 represents the HIV-1 strain SF-162 and SF162R represents a mixture of resistant strains obtained by selection of SF162 against the compound of Example 1. SF162R comprises a mixture of viral strains having protease genotypes of M461, F53L, L63P, A71V, N88D (2/3 clones); and M46I, F53L, L63P, A71V, N88D, Q92R (1/3 clones). 89-959 represents the HIV-1 strain 89-959 and 89-959R represents a mixture of resistant strains obtained by selection of 89-959 against the compound of Example 2. 89-959R comprises a mixture of viral strains having protease genotypes of N88S (4/5 clones); and D25N, T26A, D30N, D37N, R41K, G73D, R87K, N88S (1/4 clones). NL4 represents the HIV-1 strain HIV-1NL4-3. NL4(G48V) represents a strain having a synthetically generated site-directed mutation in the protease from glycine to valine at amino acid position number 48. NL4(I84V) represents a strain having a synthetically generated site-directed mutation in the protease from isoleucine to valine at amino acid position number 84. NL4(R8Q,M46I) represents a strain having synthetically generated site-directed mutations in the protease from arginine to glutamine at amino acid position number 8 and methionine to isoleucine at amino acid position number 46. NL4(P22-538) represents a mixture of resistant strains obtained by selection of HIV-1NL4-3 against the compound of Example 10 after 22 passages comprising protease genotypes M46I, L63P, A71V, V82F, I84V (4/10); M46I, L63P, V82F, I84V (3/10); and M46I, A71V, V82F, I84V (3/10). NL4(P37-538) represents resistant strains obtained by selection of HIV-1NL4-3 against the compound of Example 10 after 37 passages comprising protease genotype M46I, L63P, A71V, 184A. NL4(538/524) represents resistant strains obtained by selection of NL4(P22-538) against the compound of Example 5 after 24 passages comprising protease genotype M46I, L63P, A71V, 184A. NL4(538/P7-AG) represents a mixture of resistant strains obtained by selection of NL4(P22-538) against the compound of Example 12 after 7 passages comprising protease genotypes M46I, L63P, A71V, 184A; and V321, V82I. NL4(538/P24-AG) represents resistant strains obtained by selection of NL4(P22-538) against the compound of Example 12 after 24 passages comprising protease genotype M46I, L63P, A71V, 184A. NLA(P19-003) represents resistant strains obtained by selection of HIV-1^NL4-3 against the compound of Example 9 after 19 passages comprising protease genotype R8K, M46I. NL4(P34-003) represents resistant strains obtained by selection of HIV-1^NL4-3 against the compound of Example 9 after 34 passages comprising protease genotype R8K, M46I, L63P, A71V, L90M.
The viral isolate resistance results summarized in Tables 7-11 were generated according to the assay procedures described by Markowitz et al., Journal of Virology, vol. […]

NL4(I84V) = experiment: Viral isolate resistance assay per Markowitz et al., NL4(I84V); format: cell-based, HIV-1; details: Human immunodeficiency virus 1, Table 7
Description: as §2

NL4(538/P24-AG) = experiment: Viral isolate resistance assay per Markowitz et al., NL4(538/P24-AG); format: cell-based, HIV-1; details: Human immunodeficiency virus 1; Table 10; NL4(P22-538) selected against Example 12, 24 passages
Description: as §1

NL4(P22-538) = experiment: Viral isolate resistance assay per Markowitz et al., NL4(P22-538); format: cell-based, HIV-1; details: Human immunodeficiency virus 1; Table 9; selected against Example 10, 22 passages; read-out: Virus Isolate (EC50 nM) NL4(P22-538)
Description: as §1

HIV-1NL4-3 = experiment: microbe, parasite or virus in culture; format: cell-based; details: Human immunodeficiency virus 1, NL4
Description: as §2

NL4(R8Q,M46I) = experiment: Viral isolate resistance assay per Markowitz et al., NL4(R8Q,M46I); format: cell-based, HIV-1; details: Human immunodeficiency virus 1, read-out: Virus Isolate (EC50 nM) NL4(R8O, M46I)
Description: as §3

NL4(538/524) = experiment: Viral isolate resistance assay per Markowitz et al., NL4(538/524); format: cell-based, HIV-1; details: Human immunodeficiency virus 1; Table 10; NL4(P22-538) selected against Example 5, 24 passages
Description: as §1

## Nc1cccc(CN2C(=O)N(Cc3cccc(N)c3)[C@H](Cc3ccccc3)[C@H](O)[C@@H](O)[C@H]2Cc2ccccc2)c1 [Example 13, [4R-(4α,5α,6β,7β)]-1,3-bis[(3-aminophenyl)methyl]hexahydro-5,6-dihydroxy-4,7-bis(phenylmethyl)-2H-1,3-diazepin-2-one]
NL4(538/P7-AG)
  EC50: > 31200 nM
NL4(G48V)
  EC90: 1000 nM
NL4(P34-003)
  EC50: 1250 nM
NLA(P19-003)
  EC50: 1250 nM
NL4(P37-538)
  EC50: > 31200 nM
NL4(I84V)
  EC90: 6250 nM
NL4(538/P24-AG)
  EC50: > 31200 nM
NL4(P22-538)
  EC50: 5000 nM
HIV-1NL4-3; Table 7, EC90, read-out: Virus Isolate (EC90 nM) NL4
  EC90: 250 nM
HIV-1NL4-3; Table 8, read-out: Virus Isolate (EC50 nM) NL4
  EC50: 250 nM
NL4(R8Q,M46I)
  EC50: 750 nM
NL4(538/524)
  EC50: > 31200 nM
